Experiments:
Bcl-2 [1] = target: T1, Bcl-2 (Homo sapiens, UniProt P10415); assay: Immunoblot of Bcl-2 degradation in WI-38 fibroblast cells (Non-SnCs and IR-SnCs); format: cell-based; parameters: degradation of Bcl-xl and Bcl-2 in non-senescent WI-38 fibroblast cells (Non-SnCs) treated with varying concentrations of 753b; endogenous in cells; host or cells: WI-38 fibroblasts (non-senescent and ionizing-radiation-induced senescent); settings: different concentrations, 16 h, dose-dependent
Source text: (§1) FIG. 2A depicts immunoblots showing degradation of Bcl-xl and Bcl-2 in non-senescent WI-38 fibroblast cells (Non-SnCs) treated with varying concentrations of 753b. 3-actin was used as a loading control. FIG. 2B depicts viability of Non-SnCs treated with varying concentrations of 753b or ABT263. FIG. 2C depicts immunoblots showing degradation of Bcl-xl and Bcl-2 in ionizing radiation-induced senescent WI-38 fibroblast cells (IR-SnCs) treated with varying concentrations of 753b. 3-actin was used as a loading control. FIG. 2D depicts viability of IR-SnCs treated with varying concentrations of 753b or ABT263. FIG. 2E depicts immunoblots showing degradation of Bcl-xl and Bcl-2 in human platelets treated with varying concentrations of 753b. FIG. 2F depicts viability of human platelets treated with varying concentrations of 753b or ABT263.
(§2) The potency of 753b in degrading Bcl-xl/2 was evaluated by immunoblots after the cells or platelets were treated with different concentrations of 753b for 16 h ([…]). 753b is more cytotoxic to IR-SnCs but less toxic to Non-SnCs and platelets. The viability of Non-SnCs, IR-SnCs and platelets was measured 72 hr (Non-SnCs and IR-SnCs) and 48 hr (platelets) after they were incubated with increasing concentrations of 753b or ABT263 compared to cells/platelets with vehicle.

[2] = system: senescent cells induced by STZ/HFD in the liver; assay: Senescent cell clearance in livers of STZ/HFD mice (p16/p21 mRNA, SA-β-gal staining); format: in vivo, C57BL6 mice; settings: 5 mg/kg twice a week IP
Method: (§3) GAPDH was used as a loading control. FIG. 6B depicts the relative expression of p16 and p21 at mRNA levels in the livers of STZ/HFD mice treated with 753b or vehicle control. *p<0.05. FIGS. 6C to 6D show senescence-associated beta-galactosidase (SA-β-gal) stained livers of STZ/HFD mice treated with vehicle control (FIG. 6C) or 753b (FIG. 6D). Scale bar: […].
(§4) Experimental design: C57BL6 mice were injected with Streptozotocin (STZ) at postnatal day 2 to induce diabetes and then fed with HFD from postnatal day 30 till the end of the experiments (FIG. 5). Half of the mice started receiving vehicle and the others receiving 753b (5 mg/kg) treatment on postnatal day 45 twice a week by IP injection till the end of the experiments. A group of the mice were euthanized at postnatal day 90 (or day 45 after the initiation of the treatment) for analysis of senescent cell accumulation and steatosis. Another group of the mice were euthanized at postnatal day 150 (or day 105 after the initiation of the treatment) for analysis of liver fibrosis and cancer.
(§5) 753b effectively clears senescent cells induced by STZ/HFD in the liver. The liver tissues were collected from mice at postnatal day 90 (p90 or 45 days after treatment) for the analyses. […] Data were means±SD of triplicate experiments.

Bcl-xL [3] = target: T2, Bcl-xL (Mus musculus, UniProt Q64373); assay: Bcl-xL level in livers of STZ/HFD mice (Western blotting); format: in vivo, C57BL6 mice; settings: 5 mg/kg twice a week IP, postnatal day 90, vs vehicle
T2 construct: Western blot of Bcl-xl levels in the livers of STZ/HFD mice treated with 753b or vehicle control; from tissue; host or cells: liver of C57BL6 mice (STZ plus high fat diet)
T2 sequence (Q64373 whole entry): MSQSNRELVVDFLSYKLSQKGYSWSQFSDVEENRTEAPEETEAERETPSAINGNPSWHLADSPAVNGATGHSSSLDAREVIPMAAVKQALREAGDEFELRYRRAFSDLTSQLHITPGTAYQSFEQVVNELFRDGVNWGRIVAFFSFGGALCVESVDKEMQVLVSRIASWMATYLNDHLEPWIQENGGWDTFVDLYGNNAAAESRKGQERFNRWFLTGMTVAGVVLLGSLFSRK
Method: as §3, §4, §5

Bcl-2 [4] = target: T1, Bcl-2; assay: Immunoblot of Bcl-2 degradation in HEK293T cells; format: cell-based; parameters: endogenous in cells; settings: different concentrations for 16 h, or 1 μM for various time points
Method: (§6) FIG. 1A depicts immunoblots showing degradation of Bcl-xl and Bcl-2 in HEK293T cells treated with various concentrations of 753b for 16 hours. FIG. 1B depicts immunoblots showing degradation of Bcl-xl and Bcl-2 in HEK293T cells treated with 1 μM 753b for various durations. 3-actin was used as a loading control.
(§7) The potency of 753b in degrading Bcl-xl/2 was evaluated in 293T cells by immunoblots after the cells were treated with different concentrations of 753b for 16 h (FIG. 1A) or after the cells were treated with 1 μM 753b for various time points as indicated (FIG. 1B). Representative immunoblots are shown, and β-actin was used as a loading control.

Bcl-xl [5] = target: Bcl-xl (Homo sapiens, UniProt Q07817); assay: Immunoblot of Bcl-xl degradation in HEK293T cells; format: cell-based; parameters: endogenous in cells; settings: different concentrations for 16 h, or 1 μM for various time points
Bcl-xl, sequence (Q07817 whole entry): as the sequence (Q64373 whole entry) above, with E40G, A43S, R45M, S168A, D193E counted along it
Method: as §6, §7

[6] = system: IR-induced senescent renal epithelial cells (IR-SnC REC); assay: Viability of IR-SnC REC; format: cell-based; settings: 72 hr incubation; vs ABT263
Method: (§8) FIGS. 3A to 3B depicts viability of non-SnC human umbilical vein endothelial cells (HUVEC) and IR-induced SnC HUVEC treated with varying concentrations of ABT263 (FIG. 3A) or 753b (FIG. 3B). FIGS. 3C to 3D depict viability of non-SnC renal epithelial cells (REC), IR-induced SnC REC, and replicative senescent REC treated with varying concentrations of ABT263 (FIG. 3C) or 753b (FIG. 3D).
(§9) The viability of Non-SnC HUVEC, Non-SnC REC, IR-SnC HUVEC, IR-SnC REC, and Rep-SnC REC was measured 72 hr after they were incubated with increasing concentrations of 753b or ABT263 compared to cells/platelets with vehicle.

human platelets = assay: Viability of human platelets; format: cell-based; settings: 48 hr incubation; vs ABT263
Source text: as §1, §2

[7] = system: normal non-senescent HUVEC (Non-SnC HUVEC); assay: Viability of Non-SnC HUVEC; format: cell-based, human; settings: 72 hr incubation; vs ABT263
Method: as §8, §9

[8] = system: normal non-senescent WI-38 fibroblast cells (Non-SnCs); assay: Viability of non-senescent WI-38 fibroblast cells; format: cell-based; settings: 72 hr incubation; vs ABT263
Source text: as §1, §2

[9] = system: ionizing radiation (IR) induced senescent WI-38 fibroblast cells (IR-SnCs); assay: Viability of IR-induced senescent WI-38 fibroblast cells; format: cell-based; settings: 72 hr incubation; vs ABT263
Source text: as §1, §2

T1 sequence (P10415 whole entry): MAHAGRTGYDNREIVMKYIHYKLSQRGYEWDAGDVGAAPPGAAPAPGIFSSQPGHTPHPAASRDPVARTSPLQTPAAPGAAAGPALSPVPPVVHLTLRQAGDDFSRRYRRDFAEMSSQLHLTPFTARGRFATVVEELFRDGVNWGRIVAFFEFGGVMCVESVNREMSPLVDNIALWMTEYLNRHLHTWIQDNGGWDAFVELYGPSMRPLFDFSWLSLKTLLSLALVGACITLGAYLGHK

Question: For Cc1ncsc1-c1ccc([C@H](C)NC(=O)[C@@H]2C[C@@H](O)CN2C(=O)[C@@H](NC(=O)CCCCCCC(=O)N2CCN(C[C@]3(C)CCC(c4ccc(Cl)cc4)=C(CN4CCN(c5ccc(C(=O)NS(=O)(=O)c6ccc(N[C@H](CCN7CCOCC7)CSc7ccccc7)c(S(=O)(=O)C(F)(F)F)c6)cc5)CC4)C3)CC2)C(C)(C)C)cc1 [Compound 753b], which “Bcl-2 degradation in IR-SnCs” value (Bcl-2 [1]; IR-induced senescent WI-38 fibroblast cells) is on record?
Answer: degrades Bcl-xl and Bcl-2 in Non-SnCs and IR-SnCs

Question: What about the “Bcl-2 degradation in Non-SnCs” value (Bcl-2 [1]; non-senescent WI-38 fibroblast cells) of the same compound?
Answer: degrades Bcl-xl and Bcl-2 in Non-SnCs and IR-SnCs

Question: What about the “Senescent cell burden in the liver (SA-β-gal staining)” value ([2]; postnatal day 90) of the same compound?
Answer: reduced senescent cell burden

Question: What about the “p16 mRNA level in the liver” value ([2]; postnatal day 90, Q-RT-PCR) of the same compound?
Answer: inhibited upregulation

Question: And the “p21 mRNA level in the liver” value ([2]; postnatal day 90, Q-RT-PCR)?
Answer: inhibited upregulation

Question: What about the “Bcl-xL accumulation in the livers” value (Bcl-xL [3]) of the same compound?
Answer: reduced Bcl-xL accumulation

Question: What about the Bcl-2 degradation (Bcl-2 [4]) of the same compound?
Answer: degrades Bcl-xl and Bcl-2 in a dose- and time-dependent manner

Question: What about the Bcl-xl degradation (Bcl-xl [5]) of the same compound?
Answer: degrades Bcl-xl and Bcl-2 in a dose- and time-dependent manner

Question: And the “Senolytic potency (viability) against IR-SnC REC compared with ABT263” value [6]?
Answer: more potent senolytic agent

Question: What about the “Toxicity (viability) to human platelets compared with ABT263” value (human platelets) of the same compound?
Answer: less toxic

Question: And the “Toxicity (viability) to Non-SnC HUVEC compared with ABT263” value [7]?
Answer: less toxic

Question: And the “Toxicity (viability) to Non-SnCs compared with ABT263” value [8]?
Answer: less toxic

Question: What about the “Senolytic potency (viability) against IR-SnCs compared with ABT263” value [9] of the same compound?
Answer: more potent senolytic agent

Reference: US20240398764A1, “METHODS OF TREATING DISEASES ASSOCIATED WITH SENESCENT CELL ACCUMULATION” (University of Florida Research Foundation, Incorporated, priority 2021, published 2024)
